Experimental data taken from patent publication US20230085307A1, “PYRIDAZINONE COMPOUND AND HERBICIDE” (NISSAN CHEMICAL CORPORATION, priority 2019, published 2023).

How the values were obtained:
barnyard grass [1] = assay: Test Example 3: herbicidal effect by foliage application, Wagner pot (Table 18, symbol H); format: in vivo, barnyard grass (Echinochloa crus-galli); conditions: 320 g/ha
How it was run: (§1)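 Plants were sown in alluvial soil held under 0.1–0.5 cm standing water and grown 14 days in a greenhouse at 25–30 °C. An emulsifiable formulation, water-diluted to the set dose, was then sprayed onto the foliage, and effects were scored three weeks later using previously defined criteria.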

Italian ryegrass [2] = assay: Test Example 4: herbicidal effect by soil treatment (Table 19, symbol K); format: in vivo, Italian ryegrass (Lolium multiflorum); conditions: 320 g/ha
How it was run: (§2)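 Three weeks of greenhouse growth at 25° C. to 30° C. followed a uniform surface spray of water-diluted emulsion at a predetermined herbicide amount. Seeds had been sown beforehand under about 1.5 cm of sterilized diluvial soil. Grading followed criteria set out in an earlier test.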

persian speedwell [3] = assay: Test Example 4: herbicidal effect by soil treatment (Table 19, symbol R); format: in vivo, Persian speedwell (Veronica persica); conditions: 320 g/ha
How it was run: as §2

lambsquarters [4] = assay: Test Example 4: herbicidal effect by soil treatment (Table 19, symbol O); format: in vivo, lambsquarters (Chenopodium album); conditions: 320 g/ha
How it was run: as §2

windgrass [5] = assay: Test Example 4: herbicidal effect by soil treatment (Table 19, symbol L); format: in vivo, windgrass (Apera spica-venti); conditions: 320 g/ha
How it was run: as §2

velvetleaf [6] = assay: Test Example 4: herbicidal effect by soil treatment (Table 19, symbol M); format: in vivo, velvetleaf (Abutilon theophrasti); conditions: 320 g/ha
How it was run: as §2

southern crabgrass [7] = assay: Test Example 4: herbicidal effect by soil treatment (Table 19, symbol F); format: in vivo, southern crabgrass (Digitaria ciliaris); conditions: 320 g/ha
How it was run: as §2

lambsquarters [8] = assay: Test Example 5: herbicidal effect by foliage application, plastic box (Table 20, symbol O); format: in vivo, lambsquarters (Chenopodium album); conditions: foliage application, 320 g/ha, 3 weeks after application
How it was run: (§3)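 Plants sown in sterilized diluvial soil and grown 14 days in a greenhouse at 25° C to 30° C, then sprayed on the foliage with the compound's emulsion diluted in water to a predetermined herbicide amount. Injury to weeds and crops scored three weeks after application on a visual rating scale.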

green foxtail [9] = assay: Test Example 4: herbicidal effect by soil treatment (Table 19, symbol G); format: in vivo, green foxtail (Setaria viridis); conditions: 320 g/ha
How it was run: as §2

wild oat [10] = assay: Test Example 5: herbicidal effect by foliage application, plastic box (Table 20, symbol I); format: in vivo, wild oat (Avena fatua); conditions: foliage application, 320 g/ha, 3 weeks after application
How it was run: as §3

redroot pigweed = assay: Test Example 4: herbicidal effect by soil treatment (Table 19, symbol N); format: in vivo, redroot pigweed (Amaranthus retroflexus); conditions: 320 g/ha
How it was run: as §2

blackgrass [11] = assay: Test Example 4: herbicidal effect by soil treatment (Table 19, symbol J); format: in vivo, blackgrass (Alopecurus myosuroides); conditions: 320 g/ha
How it was run: as §2

windgrass [12] = assay: Test Example 5: herbicidal effect by foliage application, plastic box (Table 20, symbol L); format: in vivo, windgrass (Apera spica-venti); conditions: foliage application, 320 g/ha, 3 weeks after application
How it was run: as §3

Italian ryegrass [13] = assay: Test Example 5: herbicidal effect by foliage application, plastic box (Table 20, symbol K); format: in vivo, Italian ryegrass (Lolium multiflorum); conditions: foliage application, 320 g/ha, 3 weeks after application
How it was run: as §3

green foxtail [14] = assay: Test Example 5: herbicidal effect by foliage application, plastic box (Table 20, symbol G); format: in vivo, green foxtail (Setaria viridis); conditions: foliage application, 320 g/ha, 3 weeks after application
How it was run: as §3

blackgrass [15] = assay: Test Example 5: herbicidal effect by foliage application, plastic box (Table 20, symbol J); format: in vivo, blackgrass (Alopecurus myosuroides); conditions: foliage application, 320 g/ha, 3 weeks after application
How it was run: as §3

velvetleaf [16] = assay: Test Example 5: herbicidal effect by foliage application, plastic box (Table 20, symbol M); format: in vivo, velvetleaf (Abutilon theophrasti); conditions: foliage application, 320 g/ha, 3 weeks after application
How it was run: as §3

southern crabgrass [17] = assay: Test Example 5: herbicidal effect by foliage application, plastic box (Table 20, symbol F); format: in vivo, southern crabgrass (Digitaria ciliaris); conditions: foliage application, 320 g/ha, 3 weeks after application
How it was run: as §3

rice flat sedge = assay: Test Example 3: herbicidal effect by foliage application, Wagner pot (Table 18, symbol E); format: in vivo, rice flat sedge (Cyperus iria); conditions: 320 g/ha
How it was run: as §1

Chinese sprangletop = assay: Test Example 3: herbicidal effect by foliage application, Wagner pot (Table 18, symbol D); format: in vivo, chinese sprangletop (Leptochloa chinensis); conditions: 320 g/ha
How it was run: as §1

barnyard grass [18] = assay: Test Example 5: herbicidal effect by foliage application, plastic box (Table 20, symbol H); format: in vivo, barnyard grass (Echinochloa crus-galli); conditions: foliage application, 320 g/ha, 3 weeks after application
How it was run: as §3

wild oat [19] = assay: Test Example 4: herbicidal effect by soil treatment (Table 19, symbol I); format: in vivo, wild oat (Avena fatua); conditions: 320 g/ha
How it was run: as §2

persian speedwell [20] = assay: Test Example 5: herbicidal effect by foliage application, plastic box (Table 20, symbol R); format: in vivo, Persian speedwell (Veronica persica); conditions: foliage application, 320 g/ha, 3 weeks after application
How it was run: as §3

barnyard grass [21] = assay: Test Example 4: herbicidal effect by soil treatment (Table 19, symbol H); format: in vivo, barnyard grass (Echinochloa crus-galli); conditions: 320 g/ha
How it was run: as §2

chickweed = assay: Test Example 4: herbicidal effect by soil treatment (Table 19, symbol P); format: in vivo, common chickweed (Stellaria media); conditions: 320 g/ha
How it was run: as §2

SMILES: Cc1nn(C)c(=O)c(-c2c(-c3ccc(F)cc3)sc3ccc(F)cc23)c1OS(=O)(=O)N(C)C [2-009]
- herbicidal effect on H (barnyard grass), rating 0-5 (barnyard grass [1]): 5 (Herbicidal rate of 90% or more (almost completely withered))
- herbicidal effect rating, K: Italian ryegrass (Italian ryegrass [2]): 4 (Herbicidal rate of 70% or more and less than 90%)
- herbicidal effect rating, R: persian speedwell (persian speedwell [3]): 3 (Herbicidal rate of 40% or more and less than 70%)
- herbicidal effect rating, O: lambsquarters (lambsquarters [4]): 3 (Herbicidal rate of 40% or more and less than 70%)
- herbicidal effect rating, L: windgrass (windgrass [5]): 0 (Herbicidal rate of 5% or less (almost no effect))
- herbicidal effect rating, M: velvetleaf (velvetleaf [6]): 2 (Herbicidal rate of 20% or more and less than 40%)
- herbicidal effect rating, F: southern crabgrass (southern crabgrass [7]): 1 (Herbicidal rate of 5% or more and less than 20%)
- effect on lambsquarters (O) (lambsquarters [8]): 3 (Herbicidal rate of 40% or more and less than 70%)
- herbicidal effect rating, G: green foxtail (green foxtail [9]): 3 (Herbicidal rate of 40% or more and less than 70%)
- effect on wild oat (I) (wild oat [10]): 0 (Herbicidal rate of 5% or less (almost no effect))
- herbicidal effect rating, N: redroot pigweed (redroot pigweed): 5 (Herbicidal rate of 90% or more (almost completely withered))
- herbicidal effect rating, J: blackgrass (blackgrass [11]): 0 (Herbicidal rate of 5% or less (almost no effect))
- effect on windgrass (L) (windgrass [12]): 0 (Herbicidal rate of 5% or less (almost no effect))
- effect on Italian ryegrass (K) (Italian ryegrass [13]): 4 (Herbicidal rate of 70% or more and less than 90%)
- effect on green foxtail (G) (green foxtail [14]): 5 (Herbicidal rate of 90% or more (almost completely withered))
- effect on blackgrass (J) (blackgrass [15]): 0 (Herbicidal rate of 5% or less (almost no effect))
- effect on velvetleaf (M) (velvetleaf [16]): 4 (Herbicidal rate of 70% or more and less than 90%)
- effect on southern crabgrass (F) (southern crabgrass [17]): 5 (Herbicidal rate of 90% or more (almost completely withered))
- herbicidal effect on E (rice flat sedge), rating 0-5 (rice flat sedge): 4 (Herbicidal rate of 70% or more and less than 90%)
- herbicidal effect on D (Chinese sprangletop), rating 0-5 (Chinese sprangletop): 3 (Herbicidal rate of 40% or more and less than 70%)
- effect on barnyard grass (H) (barnyard grass [18]): 4 (Herbicidal rate of 70% or more and less than 90%)
- herbicidal effect rating, I: wild oat (wild oat [19]): 0 (Herbicidal rate of 5% or less (almost no effect))
- effect on persian speedwell (R) (persian speedwell [20]): 5 (Herbicidal rate of 90% or more (almost completely withered))
- herbicidal effect rating, H: barnyard grass (barnyard grass [21]): 0 (Herbicidal rate of 5% or less (almost no effect))
- herbicidal effect rating, P: chickweed (chickweed): 4 (Herbicidal rate of 70% or more and less than 90%)
